Data: patent US20210251220A1, “LICE ELIMINATOR” (priority 2018, published 2021)

Assay: Contact angle of spreading component
Format: physicochemical
Settings: 10% by weight aqueous solution, droplet on stainless steel plate, θ/2 method (JIS R3257)
Experimental: It is preferred that the contact angle of the spreading component to be mixed in the lice eliminator according to the present invention is 1 to 60°. When the contact angle on a solid surface of the spreading component to be mixed in the lice eliminator according to the present invention is in this range, the lice eliminator spreads wet and is easily taken onto a louse, for example, easily adheres to and spreads out over the outer skin of a louse, without being repelled by the outer skin when brought into contact with the louse, and the effect of exterminating a louse by blocking the louse from the outside, for example, by sealing the spiracle of the louse becomes higher. It is preferred that the contact angle of the spreading component contained in the lice eliminator of the present invention is measured by a θ/2 method or the like in accordance with the method described in JIS R3257 (1999) or the like. When the spreading component is soluble in water and is solid, the contact angle as an aqueous solution, for example, at 10% by weight or the like is measured. When the spreading component is not soluble in water and is in a liquid state, the contact angle is measured as the stock solution, and when the spreading component is soluble in water and is in a liquid state, the contact angle is measured as the stock solution or an aqueous solution at 10% by weight or the like.
A 10% by weight aqueous solution of each spreading component was prepared, and the contact angle when a droplet of the aqueous solution was put on a stainless steel plate was measured with a contact angle meter (CAX-150 manufactured by Kyowa Interface Science Co., Ltd.) by a θ/2 method in accordance with the method described in JIS R3257 (1999).

Point of comparison: “Polyethylene glycol monolaurate [compound 9]”, “Contact angle (°) of agent” value 34 °. Against it:
- CCCCCCCCCCCCc1ccc(S(=O)(=O)[O-])cc1.[Na+] [compound 1, Sodium dodecylbenzenesulfonate] — lower, 25 °
- CCCCCCCCCCCCOS(=O)(=O)[O-].[Na+] [compound 3, Sodium lauryl sulfate] — higher, 38 °
- CCCCCCCCCCCC[N+](C)(C)C.[Cl-] [compound 4, Lauryl trimethyl ammonium chloride] — higher, 36 °
- Monolauric acid polyethylene glycol [compound 10] — higher, 39 °
- Polyoxyethylene lauryl ether [compound 8] — higher, 38 °
